What was measured:
Thoracic aortic rings = Thoracic aortic rings assay; design: species or system rat; conditions: relaxation of rat thoracic aortic rings contracted with 100 ng/mL phenylephrine; read-out: Aortic Ring EC50
Protocol: Thoracic aortic rings were dissected from anesthetized (isoflurane) male Sprague-Dawley rats weighing 275-299 g. Tissues were immediately transferred to ice-cold Krebs-Henseleit solution, which had been aerated with 95% O2 and 5% CO2 for 30 minutes. Following removal of connective tissue, aortic sections were cut into 4 rings (˜2 mm each) and suspended on 2 L-shaped hooks, with one hook fixed at the bottom of the tissue bath (Schuler Organ Bath, Harvard Apparatus) and the other connected to a force transducer (F30 Force Transducer, Harvard Apparatus). Baths contained Krebs Henseleit solution (10 mL) heated to 37° C. and aerated with 95% O2 and 5% CO2. Rings were brought to an initial tension of 0.3-0.5 g and gradually raised to a resting tension of 1.0 g over 60 minutes. Rings were rinsed with Krebs Henseleit solution (heated to 37° C. and aerated with 95% 02 and 5% CO2) at 15 minute intervals until a stable baseline was obtained. Rings were considered to be stable after a resting tension of 1.0 g was maintained (for approximately 10 minutes) without need for adjustment. Rings were then contracted with 100 ng/mL phenylephrine by adding 100 μL of a 10 μg/mL phenylephrine stock solution. Tissues achieving a stable contraction were then treated in a cumulative, dose dependent manner with test compounds prepared in dimethylsulfoxide (DMSO). In some cases, tissues were rinsed three times over a 5 minute period with Krebs-Heinseleit's solution (heated to 37° C. and aerated with 95% 02 and 5% CO2), allowed to stabilize at baseline, and then used for characterization of other test articles or DMSO effects. All data were collected using the HSE-ACAD software provided by Harvard Apparatus. Percent relaxation effects were calculated in Microsoft Excel using the recorded tension value of 100 ng/mL phenylephrine treatment as 0% inhibition and, after washing the tissue with buffer, the original resting tension of tissue is used as 100% inhibition. EC50 values were calculated from concentration-response curves generated with GraphPad Prism Software.
The biological data for some of the compounds of Formula IA and Formula IB, in comparison with the prior art compound, BAY 41-2272, as the reference compound, determined by the thoracic aorta ring assay are presented in Table 6 below.

[1] = molecular target: T1, soluble guanylate cyclase (sGC) (Homo sapiens, UniProt Q02108+Q02153); assay: sGC-HEK-cGMP assay; type: cell-based; conditions: HEK293 cells, 10 μM SNP, percentage of sGC activity obtained with positive control BAY 41-2272 (= 100%)
T1 construct: endogenously expressing soluble guanylate cyclase (sGC); endogenous in cells; host or cells: HEK293
T1 sequence (Q02153 1-619): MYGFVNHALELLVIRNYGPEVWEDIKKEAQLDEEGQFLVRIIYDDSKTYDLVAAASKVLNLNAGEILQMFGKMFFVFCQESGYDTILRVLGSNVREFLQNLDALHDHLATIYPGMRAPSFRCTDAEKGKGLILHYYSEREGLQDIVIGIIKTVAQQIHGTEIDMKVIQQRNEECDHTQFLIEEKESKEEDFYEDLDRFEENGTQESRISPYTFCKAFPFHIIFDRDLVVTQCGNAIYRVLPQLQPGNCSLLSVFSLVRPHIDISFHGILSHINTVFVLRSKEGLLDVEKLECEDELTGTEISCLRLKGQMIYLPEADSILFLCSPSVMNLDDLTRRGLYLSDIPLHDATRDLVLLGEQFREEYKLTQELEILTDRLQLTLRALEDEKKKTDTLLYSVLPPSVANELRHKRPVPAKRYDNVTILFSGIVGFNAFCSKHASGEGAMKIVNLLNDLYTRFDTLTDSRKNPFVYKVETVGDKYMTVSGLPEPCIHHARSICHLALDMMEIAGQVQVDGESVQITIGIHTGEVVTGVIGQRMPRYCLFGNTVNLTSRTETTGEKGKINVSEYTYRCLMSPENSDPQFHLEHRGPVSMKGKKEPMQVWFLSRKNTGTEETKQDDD
T1 sequence (Q02108 1-690): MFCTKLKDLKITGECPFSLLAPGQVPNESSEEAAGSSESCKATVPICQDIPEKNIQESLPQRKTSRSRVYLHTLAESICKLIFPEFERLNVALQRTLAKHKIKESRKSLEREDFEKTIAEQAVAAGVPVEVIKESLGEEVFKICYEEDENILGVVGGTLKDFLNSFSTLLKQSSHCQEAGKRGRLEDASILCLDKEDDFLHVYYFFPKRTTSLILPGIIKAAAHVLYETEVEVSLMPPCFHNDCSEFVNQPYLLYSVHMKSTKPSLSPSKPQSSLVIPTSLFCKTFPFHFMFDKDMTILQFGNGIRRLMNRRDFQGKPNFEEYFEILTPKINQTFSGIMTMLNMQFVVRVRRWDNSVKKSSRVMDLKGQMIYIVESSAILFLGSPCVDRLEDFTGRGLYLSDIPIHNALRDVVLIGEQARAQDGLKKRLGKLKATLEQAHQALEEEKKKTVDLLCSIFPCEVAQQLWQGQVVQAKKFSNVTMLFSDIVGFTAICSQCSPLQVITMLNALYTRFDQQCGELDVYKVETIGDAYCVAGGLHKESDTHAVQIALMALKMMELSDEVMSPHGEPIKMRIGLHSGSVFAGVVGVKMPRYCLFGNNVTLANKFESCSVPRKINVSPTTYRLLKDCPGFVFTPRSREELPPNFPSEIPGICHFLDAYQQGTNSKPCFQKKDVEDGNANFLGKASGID
In short: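 HEK293 cells endogenously expressing sGC, preincubated 15 min at 37 °C with 0.5 mM IBMX, then exposed to compound plus 10 μM sodium nitroprusside for 10 min at 37 °C. Reaction stopped and cells lysed with 0.1 M HCl; cGMP quantified by LC/MS against a standard curve; EC50 from concentration-response curves.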

[2] = molecular target: T2, Human soluble guanylate cyclase enzyme (hsGC) (Homo sapiens, UniProt Q02108+Q02153); assay: Purified human sGC enzyme activity assay (with or without SNP); type: biochemical; conditions: 30 μM compound
T2 construct: purchased Enzo Inc. ALX-201-177
T2 sequence (Q02153 1-619): T1 sequence (Q02153 1-619)
T2 sequence (Q02108 1-690): T1 sequence (Q02108 1-690)
In short: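 Purified human sGC (5 ng) incubated 30 min at 37° C with compound at 10 or 30 μM, 300 μM GTP, 2 mM MgCl2 and 1 mM IBMX at pH 8.0, with or without 1 μM SNP. cGMP formed was quantified against a standard curve. Results are given as fold-change in specific activity over DMSO (or DMSO+SNP) control.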

SMILES	EC50 (Thoracic aortic rings) [nM]	Emax at 10 µM ([1]; compound at 10 μM) [%]	Emax at 30 µM ([1]; compound at 30 μM) [%]	sGC Enzyme Activity Increase at 30 μM with SNP ([2]; 1 μM SNP, specific activity vs DMSO and SNP)	sGC Enzyme Activity Increase at 30 μM without SNP ([2]; without SNP, specific activity vs DMSO control)
Nc1nc(-c2nn(Cc3ccccc3F)c3ncccc23)ncc1C1CC1 [BAY-41-2272, reference compound]	< 1000	–	–	–	–
Fc1ccccc1Cn1nc(-c2cc(N3CCOCC3)ccn2)nc1-c1cocn1 [Compound I-68, 4-(2-(1-(2-fluorobenzyl)-5-(oxazol-4-yl)-1H-1,2,4-triazol-3-yl)pyridin-4-yl)morpholine]	–	20 to 40	40 to 60	E (E = 10 to <20 fold increase)	C (C = 2 to <5 fold increase)

From patent US9061030B2, “sGC stimulators” (IRONWOOD PHARMACEUTICALS, INC., priority 2010, dated 2015)
